Experimental findings from ChEMBL document CHEMBL1130718, “(2Z,4E)-5-(5,6-dichloro-2-indolyl)-2-methoxy-N-(1,2,2,6,6- pentamethylpiperidin-4-yl)-2,4-pentadienamide, a novel, potent and selective inhibitor of the osteoclast V-ATPase” (Bioorg Med Chem Lett, 1998) are described below.

A word on the IC50: it is the point on the concentration scale where inhibition reaches its midpoint.

For assay [1], the species on record is Homo sapiens. In words: Ability to inhibit bone resorption in human osteoclast obtained from giant cell tumors of bone. In kind it is functional.
The species named for assay [2] is Homo sapiens. Nature of the assay: In vitro human osteoclast activity for bone resorption was assessed by ELISA assay. It counts as functional. On the technique in general: In an ELISA, binding on a coated surface is turned into a signal by an enzyme label.
Assay [3] in a line: Compound selectivity was assessed using vacuolar type proton ATPase from chicken adrenal glands (cAG). In kind it is tissue-based, Adrenal gland.
A short description of assay [4]: Compound selectivity was assessed using vacuolar type proton ATPase from human kidney cortex (hK).
Assay [5] in a line: Compound selectivity was assessed using vacuolar type proton ATPase from human kidney cortex(hK).

As to `CO/C(=C\C=C\c1cc2cc(Cl)c(Cl)cc2[nH]1)C(=O)NC1CC(C)(C)N(C)C(C)(C)C1`, the concentration for half-maximal inhibition (IC50) in assay [1] was 13.5 nM; in assay [2], 3.4 nM; in assay [3] it was 125 nM; in assay [4], 158 nM.

Consider `CO/C(=C\C=C/c1cc2cc(Cl)c(Cl)cc2[nH]1)C(=O)NC1CC(C)(C)N(C)C(C)(C)C1`, for which the IC50 in assay [4] was 2500 nM.

`CO/C(=C/C=C/c1cc2cc(Cl)c(Cl)cc2[nH]1)C(=O)NC1CC(C)(C)N(C)C(C)(C)C1` had a 50% inhibitory concentration (IC50) in assay [5] of 6.33 µM.
